Data on five compounds can be found in patent US9023874B2, “Fluorinated oxa or thia heteroarylalkylsulfide derivatives for combating invertebrate pests” (Merial, Inc., priority 2009, dated 2015).

What all share (format): in vivo
Assay [1] deals with boll weevil (Anthonomus grandis). The assay can be described thus: Activity against boll weevil, insect diet with eggs in microtiter plates. The following applies: 120 h, test solution 2500 mg/L, sprayed onto diet, 5 days, read-out: mortality (egg and larval) in comparison with untreated controls. Here is the method: The compounds were formulated in 75:25 (vohvol) water:DMSO.
For evaluating control of boll weevil (Anthonomus grandis) the test unit consisted of 24-well-microtiter plates containing an insect diet and 20-30 A. grandis eggs. Different concentrations of formulated compounds were sprayed onto the insect diet at 20 μI, using a custom built micro atomizer, at two replications. After application, the microtiter plates were incubated at 23±1° C. and 50±5% relative humidity for 5 days. Egg and larval mortality was then visually assessed.

For assay [2], the system named is vetch aphid (Megoura viciae). Description: Activity against vetch aphid, sprayed bean leaf disks in microtiter plates. Conditions: foliar, 144 h, test solution 2500 mg/L, leaf disk spray, 6 days, read-out: mortality in comparison with untreated controls. Here is the method:
The active compounds were formulated in 1:3 (vol:vol) DMSO:water with different concentrations of formulated compounds.
Bean leaf disks were placed into microtiterplates filled with 0.8% agar-agar and 2.5 ppm OPUST™. The leaf disks were sprayed with 2.5 μl of the test solution and 5 to 8 adult aphids were placed into the microtiterplates which were then closed and kept at 23±1° C. and 50±5% relative humidity under fluorescent light for 6 days. Mortality was assessed on the basis of vital, reproduced aphids. Aphid mortality and fecundity was then visually assessed.

Assay [3] relates to cowpea aphid (Aphis craccivora). The assay can be described thus: Activity against cowpea aphid, sprayed potted cowpea plants. The following applies: spray, population reduction assessed after 24, 72 and 120 hours, read-out: mortality in comparison with untreated controls. Here is the method:
The active compounds were formulated in 50:50 (vohvol) acetone:water. The test solution was prepared at the day of use.
Potted cowpea plants colonized with 100-150 aphids of various stages were sprayed after the pest population had been recorded. Population reduction was assesed after 24, 72, and 120 hours.

Assay [4] relates to silverleaf whitefly (Bemisia argentifolii, adult). Description: Activity against silverleaf whitefly adults, sprayed cotton plants. The following applies: 72 h, spray, 3 days after treatment, read-out: mortality in comparison with untreated controls. Here is the method: The active compounds were formulated in cyclohexanone as a 10,0000 ppm solution supplied in 1.3 ml ABgene® tubes. These tubes were inserted into an automated electrostatic sprayer equipped with an atomizing nozzle and they served as stock solutions for which lower dilutions were made in 50% acetone:50% water (v/v). A nonionic surfactant (Kinetic®) was included in the solution at a volume of 0.01% (v/v).
Cotton plants at the cotyledon stage (one plant per pot) were sprayed by an automated electrostatic plant sprayer equipped with an atomizing spray nozzle. The plants were dried in the sprayer fume hood and then removed from the sprayer. Each pot was placed into a plastic cup and 10 to 12 whitefly adults (approximately 3-5 days old) were introduced. The insects were collected using an aspirator and 0.6 cm, nontoxic Tygon® tubing (R-3603) connected to a barrier pipette tip. The tip, containing the collected insects, was then gently inserted into the soil containing the treated plant, allowing insects to crawl out of the tip to reach the foliage for feeding. Cups were covered with a reusable screened lid (150-micron mesh polyester screen PeCap from Tetko, Inc.). […] Mortality was assessed 3 days after treatment, compared to untreated control plants.

Assay [5] has as its system Vanda/orchid thrips (Dichromothrips corbetti). Description: Activity against Vanda/orchid thrips, dipped orchid petals. The following applies: petal dip, after 72 hours, read-out: mortality in comparison with untreated controls. As for the experimental part: The active compounds were formulated as a 50:50 (vohvol) acetone:water solution. Surfactant (Alkamuls® EL 620 from Rhodia) was added at the rate of 0.1% (vol/vol). Vanda orchids petals were cleaned, washed and air dried prior to dipping. Petals were dipped into the test solution for 3 seconds, air dried, placed inside a resealable plastic and inoculated with 20 adults. The treated petals were kept inside the holding room at 28-29° C. and relative humidity of 50-60%. Percent mortality was recorded after 72 hours.

Assay [6] deals with Mediterranean fruitfly (Ceratitis capitata). The assay can be described thus: Activity against Mediterranean fruitfly, insect diet with eggs in microtiter plates. The following applies: 120 h, sprayed onto diet with eggs, 5 days, read-out: mortality (egg and larval). Here is the method: The active compounds were formulated in 1:3 (vohvol) DMSO:water.
For evaluating control of Mediterranean fruitfly the test unit consisted of microtiter plates containing an insect diet and 50 to 80 C. capitata eggs.
Different concentrations of formulated compounds were sprayed onto the insect diet at 5 μI, using a custom built micro atomizer, at two replications. After application, microtiter plates were incubated at 28±1° C. and 80±5% relative humidity for 5 days. Egg and larval mortality was then visually assessed.

For assay [7], the system named is brown planthopper (Nilaparvata lugens). The assay can be described thus: Activity against brown planthopper, sprayed rice seedlings. The following applies: spray, after 72 hours, read-out: mortality in comparison with untreated controls. Here is the method:
The active compounds were formulated as a 50:50 (vohvol) acetone:water solution. Surfactant (Alkamuls® EL 620 from Rhodia) was added at the rate of 0.1% (vol/vol).
Rice seedlings were cleaned and washed 24 h before spraying. Potted rice seedlings were sprayed with 5 ml test solution, air dried, placed in cages and inoculated with 10 adults. Treated rice plants were kept at 28-29° C. and relative humidity of 50-60%. Percent mortality was recorded after 72 hours.

Assay [8] concerns diamondback moth (Plutella xylostella). Description: Activity against diamondback moth, dipped cabbage leaf disk. The following applies: foliar, test solution 500 ppm, leaf dip, third instar larvae, after 72 h, read-out: mortality in comparison with untreated controls. As for the experimental part: The active compounds were formulated in 50:50 acetone:water and 0.1% (vol/vol) Alkamuls® EL 620 surfactant. A 6 cm leaf disk of cabbage leaves was dipped in the test solution for 3 seconds and allowed to air dry in a Petri plate lined with moist filter paper. The leaf disk was inoculated with 10 third instar larvae and kept at 25-27° C. and 50-60% humidity for 3 days. Mortality was assessed after 72 h of treatment.

As for `CC(SCCSC(F)(F)F)c1nnc(C(F)(F)F)s1` (centres unmarked) [11-1, 2-(Trifluoromethyl)-5-{1-[2-(trifluoromethylthio)ethylthio]ethyl}-1,3,4-thiadiazole], the mortality at 2500 µg/mL in assay [1] and in assay [2] was 100% in each case.
`CC(c1nnc(C(F)(F)F)s1)S(=O)(=O)CCSC(F)(F)F` (centres unmarked) [11-2, 2-(Trifluoromethyl)-5-{1-[2-(trifluoromethylthio)ethylsulfonyl]-ethyl}-1,3,4-thiadiazole]: the mortality at 2500 µg/mL in assay [1] and in assay [2] was 100% throughout. Further, the mortality at 500 ppm in assay [3], in assay [4] and in assay [5] was at least 75% each time. In assay [6], the mortality (in general, the share of the test organisms that died) at 2500 ppm was at least 50%.
For the compound `CC(c1nnc(C(F)(F)F)s1)[S+]([O-])CCSC(F)(F)F` (centres unmarked) [11-3, 2-(Trifluoromethyl)-5-{1-[2-(trifluoromethylthio)ethylsulfinyl]ethyl}-1,3,4-thiadiazole], the mortality at 500 ppm in assay [7], in assay [8], in assay [3] and in assay [5] was at least 75% each time. Further, the mortality at 2500 µg/mL in assay [1] and in assay [2] was 100% in each case.
In the case of `CC(Cl)(c1nnc(C(F)(F)F)s1)[S+]([O-])CCSC(F)(F)F` (centres unmarked) [11-8, 2-{1-Chloro-1-[2-(trifluoromethylthio)ethylsulfinyl]ethyl}-5-(trifluoromethyl)-1,3,4-thiadiazole], the mortality at 500 ppm in assay [7] is at least 75%. For the same compound, the mortality at 2500 µg/mL in assay [1] was found to be 100%.
In the case of `CC(C#N)(SCCSC(F)(F)F)c1nnc(C(F)(F)F)s1` (centres unmarked) [11-9, 2-(5-(trifluoromethyl)-1,3,4-thiadiazol-2-yl)-2-(2-(trifluoromethylthio)ethylthio)propanenitrile], the mortality at 2500 ppm in assay [6] is at least 50%.
